Consider 13 compounds from patent US20110201818A1, “POLO-LIKE KINASE INHIBITORS” (TAKEDA PHARMACEUTICAL COMPANY LIMITED, priority 2007, published 2011).

One series addresses T1, human PLK1 (Homo sapiens, UniProt P53350).
T1 construct: FLAG (DYKDDDDK) (N); made in house; host or cells: Sf21 insect cells, recombinant baculovirus (pFASTBAC1, Bac-to-Bac)
Put plainly: PLK1 in vitro enzymatic activity assay (phosphorylation of alpha casein by recombinant PLK1). The note with it: recombinant FLAG-tagged PLK1, alpha casein substrate, 500 nmol/L ATP, 40 min at room temperature; read-out: pIC50 (PLK1) (converted). The class given is biochemical. The method, boiled down: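 Recombinant PLK1 from baculovirus-infected Sf21 cells (50 ng) phosphorylated 3 μg alpha casein for 40 min at room temperature in HEPES pH 7.5, Mg acetate, DTT buffer with 500 nmol/L ATP plus [γ-32P]ATP. TCA-precipitated phosphoprotein was filter-captured, washed, and counted by scintillation.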

Some results are limits rather than exact numbers.

T1 sequence (P53350 with tags, fused parts or gaps): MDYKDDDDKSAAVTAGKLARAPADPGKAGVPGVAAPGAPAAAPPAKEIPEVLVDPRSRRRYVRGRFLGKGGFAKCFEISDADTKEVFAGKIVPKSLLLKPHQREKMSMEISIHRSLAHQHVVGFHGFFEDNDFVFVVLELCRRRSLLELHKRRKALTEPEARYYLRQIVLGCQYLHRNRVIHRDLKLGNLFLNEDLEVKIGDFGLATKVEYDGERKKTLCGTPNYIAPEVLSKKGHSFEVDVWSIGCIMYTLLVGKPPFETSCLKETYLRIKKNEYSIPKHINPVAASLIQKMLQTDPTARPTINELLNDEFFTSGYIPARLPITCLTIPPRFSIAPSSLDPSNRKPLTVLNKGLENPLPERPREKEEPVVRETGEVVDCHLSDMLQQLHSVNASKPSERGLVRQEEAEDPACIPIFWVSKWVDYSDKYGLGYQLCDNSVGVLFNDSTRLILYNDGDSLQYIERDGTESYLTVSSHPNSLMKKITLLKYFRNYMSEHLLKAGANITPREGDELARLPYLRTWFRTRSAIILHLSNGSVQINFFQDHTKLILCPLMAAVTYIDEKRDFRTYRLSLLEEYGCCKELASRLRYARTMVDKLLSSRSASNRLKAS

Turning to `COc1cc(C(=O)NC2CN(C)C2)ccc1Nc1ncc2c(n1)N(C1CCCC1)CC(F)(F)C(=O)N2C` [Compound 4, 4-(9-Cyclopentyl-7,7-difluoro-5-methyl-6-oxo-6,7,8,9-tetrahydro-5H-pyrimido[4,5-b][1,4]diazepin-2-ylamino)-3-methoxy-N-(1-methylazetidin-3-yl)benzamide], the melting point – broadly, the temperature, or range, at which the solid turns liquid – fell in the range of 157 to 162 °C. For the same compound, the IC50 on human PLK1 was not above 2 nM.
`COc1cc(C(=O)NN2CCN(C)CC2)ccc1Nc1ncc2c(n1)N(C1CCCC1)CC(F)(F)C(=O)N2C` [Compound 6, 4-(9-cyclopentyl-7,7-difluoro-5-methyl-6-oxo-6,7,8,9-tetrahydro-5H-pyrimido[4,5-b][1,4]diazepin-2-ylamino)-3-methoxy-N-(4-methylpiperazin-1-yl)benzamide] had a melting point of 168 to 174 °C.
Turning to `COc1cc(C(=O)N[C@@H]2CCN(C)C2)ccc1Nc1ncc2c(n1)N(C1CCCCC1)CC(F)(F)C(=O)N2C` [Compound 39, (R)-4-(9-cyclohexyl-7,7-difluoro-5-methyl-6-oxo-6,7,8,9-tetrahydro-5H-pyrimido[4,5-b][1,4]diazepin-2-ylamino)-3-methoxy-N-(1-methylpyrrolidin-3-yl)benzamide], the melting point was in the range of 98 to 99 °C. In addition, the IC50 at human PLK1 is more than 2 nM.
For the compound `COc1cc(C(=O)NC2CCC(N(C)C)CC2)ccc1Nc1ncc2c(n1)N(C1CCCCC1)CC(F)(F)C(=O)N2C` (stereo not shown) [Compound 49, 4-(9-cyclohexyl-7,7-difluoro-5-methyl-6-oxo-6,7,8,9-tetrahydro-5H-pyrimido[4,5-b][1,4]diazepin-2-ylamino)-N-(4-(dimethylamino)cyclohexyl)-3-methoxybenzamide], the melting point was 208 to 214 °C. At human PLK1, the IC50 was not above 2 nM.
On to `COc1cc(C(=O)NC2CCN(CC(F)(F)F)CC2)ccc1Nc1ncc2c(n1)N(C1CCCCC1)CC(F)(F)C(=O)N2C` [Compound 50, 4-(9-cyclohexyl-7,7-difluoro-5-methyl-6-oxo-6,7,8,9-tetrahydro-5H-pyrimido[4,5-b][1,4]diazepin-2-ylamino)-3-methoxy-N-(1-(2,2,2-trifluoroethyl)piperidin-4-yl)benzamide], for which the melting point fell in the range of 213 to 215 °C. Further, the IC50 at human PLK1 is not above 2 nM.
In the case of `COc1cc(C(=O)NN2CCN(C3CCCC3)CC2)ccc1Nc1ncc2c(n1)N(C1CCCCC1)CC(F)(F)C(=O)N2C` [Compound 52, 4-(9-cyclohexyl-7,7-difluoro-5-methyl-6-oxo-6,7,8,9-tetrahydro-5H-pyrimido[4,5-b][1,4]diazepin-2-ylamino)-N-(4-cyclopentylpiperazin-1-yl)-3-methoxybenzamide], the melting point was 98 to 99 °C. The IC50 at human PLK1 is more than 2 nM.
With `COc1cc(C(=O)NC2CCN(C(=O)CN(C)C)CC2)ccc1Nc1ncc2c(n1)N(C1CCCCC1)CC(F)(F)C(=O)N2C` [Compound 71, 4-(9-cyclohexyl-7,7-difluoro-5-methyl-6-oxo-6,7,8,9-tetrahydro-5H-pyrimido[4,5-b][1,4]diazepin-2-ylamino)-N-(1-(2-(dimethylamino)acetyl)piperidin-4-yl)-3-methoxybenzamide], the melting point lay in the range of 190 to 191 °C. In addition, the IC50 on human PLK1 was not above 2 nM.
Regarding `COc1cc(C(=O)N[C@H]2CCNC2)ccc1Nc1ncc2c(n1)N(C1CCCCC1)CC(F)(F)C(=O)N2C` [Compound 72, (S)-4-(9-cyclohexyl-7,7-difluoro-5-methyl-6-oxo-6,7,8,9-tetrahydro-5H-pyrimido[4,5-b][1,4]diazepin-2-ylamino)-3-methoxy-N-(pyrrolidin-3-yl)benzamide], the melting point was 258 to 263 °C. Besides, the IC50 on human PLK1 is not above 2 nM.
Taken in the same sequence, the figures for `COc1cc(C(=O)N[C@@H]2CCNC2)ccc1Nc1ncc2c(n1)N(C1CCCCC1)CC(F)(F)C(=O)N2C` [Compound 73, (R)-4-(9-cyclohexyl-7,7-difluoro-5-methyl-6-oxo-6,7,8,9-tetrahydro-5H-pyrimido[4,5-b][1,4]diazepin-2-ylamino)-3-methoxy-N-(pyrrolidin-3-yl)benzamide] were 195 to 198 °C and not above 2 nM.
`C=CC1(F)CN(C2CCCC2)c2nc(Nc3ccc(C(=O)N[C@@H]4CCCNC4)cc3OC)ncc2N(C)C1=O` (stereo partly drawn) [Compound 102, 4-(9-cyclopentyl-7-fluoro-5-methyl-6-oxo-7-vinyl-6,7,8,9-tetrahydro-5H-pyrimido[4,5-b][1,4]diazepin-2-ylamino)-3-methoxy-N—((R)-piperidin-3-yl)benzamide] yielded a melting point of 169 to 172 °C. The IC50 on human PLK1 was not above 2 nM.
For the compound `CN1C(=O)C(F)(F)CN(C2CCCC2)c2nc(Nc3cccc4c3OC(F)(F)O4)ncc21` [Compound 136, 9-cyclopentyl-2-(2,2-difluorobenzo[d][1,3]dioxol-4-ylamino)-7,7-difluoro-5-methyl-8,9-dihydro-5H-pyrimido[4,5-b][1,4]diazepin-6(7H)-one], the IC50 on human PLK1 is more than 2 nM.
On the same count and under the same terms, the result for `COc1cc(CO)ccc1Nc1ncc2c(n1)N(C1CCCC1)CC(F)(F)CN2C` [Compound 137, (4-(9-cyclopentyl-7,7-difluoro-5-methyl-6,7,8,9-tetrahydro-5H-pyrimido[4,5-b][1,4]diazepin-2-ylamino)-3-methoxyphenyl)methanol] reads more than 2 nM; that for `COc1cc(C(=O)NC2CCN(C)CC2)ccc1Nc1ncc2c(n1)N(C1CCCC1)CC(F)(F)CN2C` [Compound 138, 4-(9-cyclopentyl-7,7-difluoro-5-methyl-6,7,8,9-tetrahydro-5H-pyrimido[4,5-b][1,4]diazepin-2-ylamino)-3-methoxy-N-(1-methylpiperidin-4-yl)benzamide], more than 2 nM.
